# How the values were obtained:
# [1] = biological target: High affinity nerve growth factor receptor (Homo sapiens, UniProt P04629); test: Inhibition of N-terminal His6-tagged human recombinant TrkA (440 to end residues) expressed in baculovirus infected insect Sf21 cells after 1 hr by Alphascreen assay
# [2] = biological target: Serine/threonine-protein kinase pim-1 (Homo sapiens, UniProt P11309); test: Inhibition of N-terminal GST-tagged recombinant human full length Pim-1 expressed in Escherichia coli after 1 hr by Alphascreen assay
# [3] = biological target: Tyrosine-protein kinase ABL1 (Homo sapiens, UniProt P00519); test: Inhibition of recombinant c-Abl (unknown origin) after 1 hr by Alphascreen assay
# [4] = biological target: Vascular endothelial growth factor receptor 2 (Homo sapiens, UniProt P35968); test: Inhibition of N-terminal His6-tagged human recombinant KDR (790 to end residues) expressed in baculovirus infected insect Sf21 cells after 1 hr by Alphascreen assay
# [5] = biological target: Tyrosine-protein kinase Yes (Homo sapiens, UniProt P07947); test: Inhibition of N-terminal His6-tagged human recombinant Yes expressed in baculovirus infected insect Sf21 cells after 1 hr by Alphascreen assay
# [6] = biological target: Mitogen-activated protein kinase 1 (Homo sapiens, UniProt P28482); test: Inhibition of recombinant ERK2 (unknown origin) after 1 hr by Alphascreen assay
# [7] = biological target: Homeodomain-interacting protein kinase 1 (Homo sapiens, UniProt Q86Z02); test: Inhibition of N-terminal His6-tagged recombinant human HIPK1 (158 to 555 residues) after 1 hr by Alphascreen assay
# Sequence of Mitogen-activated protein kinase 1 (P28482 whole entry, the tested form may be a part): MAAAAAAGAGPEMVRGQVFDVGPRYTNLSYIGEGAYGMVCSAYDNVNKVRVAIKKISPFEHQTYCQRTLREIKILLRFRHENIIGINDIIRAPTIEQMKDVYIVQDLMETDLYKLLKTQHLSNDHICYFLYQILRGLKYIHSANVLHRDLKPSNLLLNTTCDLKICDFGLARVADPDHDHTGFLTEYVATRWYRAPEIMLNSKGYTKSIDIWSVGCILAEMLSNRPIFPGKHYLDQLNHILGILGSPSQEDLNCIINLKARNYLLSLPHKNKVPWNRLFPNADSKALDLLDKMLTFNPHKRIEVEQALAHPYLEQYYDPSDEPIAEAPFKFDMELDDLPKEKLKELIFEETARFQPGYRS
# Sequence of Tyrosine-protein kinase ABL1 (P00519 whole entry): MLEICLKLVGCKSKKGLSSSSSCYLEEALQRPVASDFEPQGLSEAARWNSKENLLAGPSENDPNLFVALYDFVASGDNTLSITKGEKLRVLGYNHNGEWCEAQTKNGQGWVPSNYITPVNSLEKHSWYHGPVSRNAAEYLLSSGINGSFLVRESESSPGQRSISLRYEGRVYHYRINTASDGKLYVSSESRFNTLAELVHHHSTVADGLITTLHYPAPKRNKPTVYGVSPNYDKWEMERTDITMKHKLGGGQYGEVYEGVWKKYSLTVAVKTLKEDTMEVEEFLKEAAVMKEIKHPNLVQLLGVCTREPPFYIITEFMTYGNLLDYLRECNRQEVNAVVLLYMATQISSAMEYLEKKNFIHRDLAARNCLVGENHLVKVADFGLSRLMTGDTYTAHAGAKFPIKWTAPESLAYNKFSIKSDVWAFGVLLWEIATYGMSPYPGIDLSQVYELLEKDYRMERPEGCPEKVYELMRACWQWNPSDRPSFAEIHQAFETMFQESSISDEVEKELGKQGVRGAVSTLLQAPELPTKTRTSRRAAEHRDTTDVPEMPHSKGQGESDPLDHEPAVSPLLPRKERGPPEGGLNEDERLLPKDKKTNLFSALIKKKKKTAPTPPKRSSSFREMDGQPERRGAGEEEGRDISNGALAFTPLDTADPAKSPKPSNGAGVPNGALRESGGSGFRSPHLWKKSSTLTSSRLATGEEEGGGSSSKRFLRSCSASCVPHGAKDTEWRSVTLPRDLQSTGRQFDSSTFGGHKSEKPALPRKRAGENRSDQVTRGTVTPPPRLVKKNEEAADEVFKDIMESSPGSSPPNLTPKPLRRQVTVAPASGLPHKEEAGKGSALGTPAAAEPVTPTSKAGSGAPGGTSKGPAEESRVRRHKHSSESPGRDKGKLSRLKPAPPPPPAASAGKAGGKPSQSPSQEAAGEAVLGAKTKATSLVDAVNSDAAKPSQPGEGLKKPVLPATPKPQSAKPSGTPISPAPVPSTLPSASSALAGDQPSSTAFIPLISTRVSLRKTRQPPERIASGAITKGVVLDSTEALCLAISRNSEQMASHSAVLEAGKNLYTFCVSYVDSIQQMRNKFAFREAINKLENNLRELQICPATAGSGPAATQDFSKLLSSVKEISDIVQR
# Sequence of Tyrosine-protein kinase Yes (P07947 whole entry): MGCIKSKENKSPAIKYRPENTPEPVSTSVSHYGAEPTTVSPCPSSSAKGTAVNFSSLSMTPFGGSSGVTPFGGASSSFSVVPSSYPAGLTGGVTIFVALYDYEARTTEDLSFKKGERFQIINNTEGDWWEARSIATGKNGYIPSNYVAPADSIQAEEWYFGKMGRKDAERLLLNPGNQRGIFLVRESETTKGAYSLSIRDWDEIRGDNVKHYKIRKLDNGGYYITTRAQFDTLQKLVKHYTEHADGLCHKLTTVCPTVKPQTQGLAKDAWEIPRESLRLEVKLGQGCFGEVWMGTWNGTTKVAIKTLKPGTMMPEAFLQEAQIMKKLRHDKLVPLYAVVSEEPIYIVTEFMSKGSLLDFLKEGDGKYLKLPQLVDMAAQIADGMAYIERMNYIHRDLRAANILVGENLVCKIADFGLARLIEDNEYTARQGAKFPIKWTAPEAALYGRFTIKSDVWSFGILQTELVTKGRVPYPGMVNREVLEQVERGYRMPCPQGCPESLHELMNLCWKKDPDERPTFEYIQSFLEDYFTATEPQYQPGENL
# Sequence of High affinity nerve growth factor receptor (P04629 whole entry): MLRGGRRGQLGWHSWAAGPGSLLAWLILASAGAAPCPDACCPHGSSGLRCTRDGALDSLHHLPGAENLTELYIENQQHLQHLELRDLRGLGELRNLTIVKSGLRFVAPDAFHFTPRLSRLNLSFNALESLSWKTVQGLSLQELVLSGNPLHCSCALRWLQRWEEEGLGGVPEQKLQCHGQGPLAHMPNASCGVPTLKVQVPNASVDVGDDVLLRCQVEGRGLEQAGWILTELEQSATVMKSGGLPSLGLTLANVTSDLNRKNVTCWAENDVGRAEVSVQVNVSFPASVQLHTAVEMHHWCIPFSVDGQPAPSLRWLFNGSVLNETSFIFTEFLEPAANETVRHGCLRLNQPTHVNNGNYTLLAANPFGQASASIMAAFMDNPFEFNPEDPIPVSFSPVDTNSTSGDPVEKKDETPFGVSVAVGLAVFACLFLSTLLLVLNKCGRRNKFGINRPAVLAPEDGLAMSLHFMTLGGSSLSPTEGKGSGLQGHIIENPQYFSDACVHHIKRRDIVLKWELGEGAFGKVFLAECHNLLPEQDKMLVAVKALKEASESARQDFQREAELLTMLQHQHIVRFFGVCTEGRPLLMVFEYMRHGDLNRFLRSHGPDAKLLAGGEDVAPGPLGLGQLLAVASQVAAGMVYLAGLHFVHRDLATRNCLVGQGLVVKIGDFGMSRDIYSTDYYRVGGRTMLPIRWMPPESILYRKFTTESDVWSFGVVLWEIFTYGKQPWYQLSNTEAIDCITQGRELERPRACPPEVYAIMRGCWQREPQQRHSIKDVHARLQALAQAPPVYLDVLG
# Sequence of Vascular endothelial growth factor receptor 2 (P35968 whole entry): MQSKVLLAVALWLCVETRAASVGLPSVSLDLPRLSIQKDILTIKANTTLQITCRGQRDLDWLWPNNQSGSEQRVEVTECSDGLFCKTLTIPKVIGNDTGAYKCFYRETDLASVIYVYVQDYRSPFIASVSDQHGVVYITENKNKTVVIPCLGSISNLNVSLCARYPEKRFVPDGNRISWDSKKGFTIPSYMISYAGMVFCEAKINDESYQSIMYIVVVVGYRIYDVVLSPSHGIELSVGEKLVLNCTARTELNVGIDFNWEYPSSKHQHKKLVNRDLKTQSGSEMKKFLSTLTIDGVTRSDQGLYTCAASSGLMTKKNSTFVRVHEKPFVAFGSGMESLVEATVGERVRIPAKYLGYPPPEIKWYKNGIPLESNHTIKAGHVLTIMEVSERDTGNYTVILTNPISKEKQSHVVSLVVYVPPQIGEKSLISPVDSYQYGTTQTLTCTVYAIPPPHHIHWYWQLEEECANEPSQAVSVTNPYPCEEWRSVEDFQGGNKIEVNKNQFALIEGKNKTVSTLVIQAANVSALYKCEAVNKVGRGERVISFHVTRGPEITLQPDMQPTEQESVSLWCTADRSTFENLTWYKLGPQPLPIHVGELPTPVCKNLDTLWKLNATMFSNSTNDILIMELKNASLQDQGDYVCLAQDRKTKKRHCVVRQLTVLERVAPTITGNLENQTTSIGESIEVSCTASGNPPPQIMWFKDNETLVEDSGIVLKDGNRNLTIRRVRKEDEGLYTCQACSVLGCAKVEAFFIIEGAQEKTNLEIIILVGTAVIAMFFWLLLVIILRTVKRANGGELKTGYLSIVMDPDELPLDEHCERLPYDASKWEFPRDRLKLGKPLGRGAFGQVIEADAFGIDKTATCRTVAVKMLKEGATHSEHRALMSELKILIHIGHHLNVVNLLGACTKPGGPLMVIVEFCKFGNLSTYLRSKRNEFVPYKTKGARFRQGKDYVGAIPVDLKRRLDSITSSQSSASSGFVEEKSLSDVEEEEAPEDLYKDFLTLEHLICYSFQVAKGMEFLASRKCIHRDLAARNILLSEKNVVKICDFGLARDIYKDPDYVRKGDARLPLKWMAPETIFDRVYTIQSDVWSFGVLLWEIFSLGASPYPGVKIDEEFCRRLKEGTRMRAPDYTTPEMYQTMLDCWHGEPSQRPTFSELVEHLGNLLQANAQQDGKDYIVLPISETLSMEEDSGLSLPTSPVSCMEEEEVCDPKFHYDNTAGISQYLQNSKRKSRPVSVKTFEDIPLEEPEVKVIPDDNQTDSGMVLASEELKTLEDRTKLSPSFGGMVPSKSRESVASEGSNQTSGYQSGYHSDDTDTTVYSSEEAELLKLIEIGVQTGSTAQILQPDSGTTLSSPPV
# Sequence of Serine/threonine-protein kinase pim-1 (P11309 whole entry): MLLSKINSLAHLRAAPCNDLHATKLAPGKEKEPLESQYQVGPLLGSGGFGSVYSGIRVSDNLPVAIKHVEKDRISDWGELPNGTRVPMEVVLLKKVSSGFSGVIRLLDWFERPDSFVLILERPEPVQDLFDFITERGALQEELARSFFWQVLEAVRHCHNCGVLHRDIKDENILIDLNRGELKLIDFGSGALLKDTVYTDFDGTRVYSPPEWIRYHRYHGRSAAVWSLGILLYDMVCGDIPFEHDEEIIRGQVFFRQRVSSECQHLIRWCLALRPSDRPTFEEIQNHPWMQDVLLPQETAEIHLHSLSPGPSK
SMILES,IC50 [1] [µM],IC50 [2] [µM],IC50 [3] [µM],IC50 [4] [µM],IC50 [5] [µM],IC50 [6] [µM],IC50 [7] [µM]
COc1ccc(-c2cnc3cncc(Nc4ccc(N5CCCCC5)cc4)c3n2)cc1,3.72,2.83,2.27,2.05,5.34,3.13,3.21
c1ccc(Nc2cncc3ncc(-c4ccc(N5CCCCC5)cc4)nc23)cc1,7.79,31.2,6.84,11.1,8.82,12.2,11.8
c1ccc(Nc2cncc3nc(-c4ccc(N5CCCCC5)cc4)cnc23)cc1,> 100,> 100,22.5,> 100,> 31.6,> 100,> 100
COc1cccc(NC(=O)Nc2cncc3nc(-c4ccccc4)cnc23)c1,> 100,> 31.6,> 100,> 100,> 31.6,> 31.6,> 100
COc1cccc(NC(=O)Nc2nccc3nc(-c4ccccc4)cnc23)c1,> 100,> 100,> 100,> 100,> 31.6,> 100,> 100
c1ccc(-c2cnc3cc(Nc4ccc(N5CCCCC5)cc4)ncc3n2)cc1,> 100,> 100,12.9,> 100,27.2,> 100,> 100
c1ccc(-c2cnc3cnc(Nc4ccc(N5CCOCC5)cc4)cc3n2)cc1,> 100,> 100,> 100,> 100,> 100,> 100,> 100
COc1ccc(-c2cnc3c(Nc4ccc(N5CCCCC5)cc4)nccc3n2)cc1,1.44,11.8,1.34,1.99,1.02,1.44,7.25
COc1ccc(-c2cnc3cncc(Nc4cc(OC)ccc4OC)c3n2)cc1,1.45,8.57,1.37,1.6,2.01,3.79,13.1
C=CCNC(=O)Nc1cncc2nc(-c3ccccc3)cnc12,> 100,> 100,> 100,> 31.6,> 100,> 31.6,> 100
COc1ccc(-c2cnc3c(Nc4ccc(N5CCOCC5)cc4)nccc3n2)cc1,6.69,> 100,5.37,12,7.07,> 100,> 100
c1ccc(-c2cnc3c(Nc4ccc(N5CCCCC5)cc4)nccc3n2)cc1,5.81,4.91,2.66,1.1,8.1,1.42,0.922
COc1ccc(NC(=O)Nc2cncc3nc(-c4ccccc4)cnc23)cc1,> 100,16.4,25.1,> 100,22.1,5.25,20.4
c1ccc(-c2cnc3cncc(Nc4ccc(N5CCOCC5)cc4)c3n2)cc1,5.32,8.3,5.27,6.12,5.11,8.43,8.15
c1ccc(-c2cnc3cncc(Nc4ccc(N5CCCCC5)cc4)c3n2)cc1,3.23,2.61,2.16,1.56,5.56,2.02,2.59
COc1ccccc1Nc1nccc2nc(-c3ccccc3)cnc12,> 100,> 100,16.6,> 31.6,20.4,> 100,> 100
COc1cccc(Nc2cncc3ncc(-c4ccc(N5CCCCC5)cc4)nc23)c1,9.36,11.3,7.71,8.84,11.1,16.6,12.7
CCNC(=O)Nc1nccc2nc(-c3ccccc3)cnc12,> 100,> 100,30.8,> 100,> 100,> 100,> 100
COc1cccc(Nc2cc3nc(-c4ccccc4)cnc3cn2)c1,> 100,> 100,> 100,> 100,> 31.6,> 100,> 100
COc1cccc(Nc2nccc3nc(-c4ccccc4)cnc23)c1,> 100,> 100,> 100,> 100,> 100,> 100,> 100
Fc1ccc(Nc2cncc3nc(-c4ccccc4)cnc23)cc1Cl,> 100,> 100,> 100,> 100,> 31.6,> 100,> 100
c1ccc(-c2cnc3cnc(Nc4ccc(N5CCCCC5)cc4)cc3n2)cc1,9.24,27.4,8.71,17.1,23.1,23.2,30.5
c1ccc(-c2cnc3c(Nc4ccc(N5CCCCC5)cc4)cncc3n2)cc1,3.42,2.81,2.54,2.06,6.21,2.34,2.73
C#Cc1cccc(Nc2nccc3nc(-c4ccccc4)cnc23)c1,> 100,> 100,> 100,> 100,> 100,> 100,> 100
COc1cccc(Nc2cncc3nc(-c4ccc(N5CCCCC5)cc4)cnc23)c1,> 100,> 100,7.91,> 100,> 31.6,> 100,> 100
COc1ccc(-c2cnc3cncc(Nc4ccc(N5CCOCC5)cc4)c3n2)cc1,2.48,4.4,2.49,3.31,2.41,4.26,4.02
c1ccc(-c2cnc3c(Nc4ccc(N5CCOCC5)cc4)nccc3n2)cc1,13.7,> 100,11.5,16,12.6,> 100,> 100
COc1ccc(Nc2nccc3nc(-c4ccccc4)cnc23)cc1,> 100,> 100,> 100,> 100,31.5,> 100,> 100

# Source: ChEMBL document CHEMBL3779774, “Efficient synthesis of novel disubstituted pyrido[3,4-b]pyrazines for the design of protein kinase inhibitors” (Medchemcomm, 2016)
